Test results reported in patent US4556653A, “Pyrido[1,5]benzodiazepinone derivatives and pharmacological activities thereof” (Dompe' Farmaceutica S.p.A., priority 1983, dated 1985).

Experiments:
in vivo = conditions: mouse, po, Swiss mice, 14 days observation
Experimental: The acute toxicity was determined by administering by oral route the substances under exam to Swiss mice; average weight 20.-+.2 g. The observation period was 14 days. 10 Animals were used for each tested dose.

Gastric acid secretion = Gastric acid secretion in the pylorus ligated rat (antisecretory activity); type: in vivo, rat (male Sprague-Dawley); conditions: 4 hours
Experimental: Gastric acid secretion in the pylorus ligated rat
Male Sprague-Dawley rats weighing 150.-+.5 g fasting since 48 hours were used. Pylorus ligation was performed for 4 hours. The products under exam were administered by the oral route immediately after the ligation.

muscarinic receptor = test: Interaction with muscarinic receptor (displacement of 3H-QNB bound to rat cerebral cortex receptors); type: binding; parameters: unit not given here
Carbachole salivation = Carbachole salivation in the rat; type: in vivo, rat (male Sprague-Dawley); conditions: 62.5 mg/kg p.o., one hour before carbachole 1 mg/kg i.p.
Experimental: Carbachole salivation in the rat
The method cited by R. Turner: "Parasympatholytic Agents" in R. Turner "Screening Methods in Pharmacology" pag. 137. Academic Press. New York and London 1965, with slight changes, was used.
Male Sprague-Dawley rats, average weight 150.-+.5 g, fasting since 24 hours, were used.
The salivation was induced by the intraperitoneal administration of 1 mg/kg of carbachole.
The products under exam were administered orally one hour before the cholinergic stimulus.

[1] = concentration 10^-5 (unit not given)
[2] = concentration 10^-6 (unit not given)
[3] = concentration 10^-7 (unit not given)

Compound | LD50 at 336 h (in vivo) | % Antisecretory activity (Gastric acid secretion; 6.25 mg/kg p.o.) | % Antisecretory activity (Gastric acid secretion; 12.5 mg/kg p.o.) | % Antisecretory activity (Gastric acid secretion; 25 mg/kg p.o.) | Interaction with muscarinic receptor (muscarinic receptor; [1]) | Interaction with muscarinic receptor (muscarinic receptor; [2]) | Interaction with muscarinic receptor (muscarinic receptor; [3]) | Carbachol salivation - % protection (Carbachole salivation)
CC(C(=O)N1c2ccccc2C(=O)Nc2cccnc21)N1CCCCC1 (stereo not shown) [Compound 1, 11-[2-(Piperidin-1-yl)propionyl]-5,11-dihydro-6H-pyrido-[2,3-b][1,4]benzodiazepin-6-one] | > 500 mg/kg | 10.3% | 36.3% | 71.3% | 46.6 | 3.96 | 0 | 0%
O=C1Nc2cccnc2N(C(=O)CN2CCCCCC2)c2ccccc21 [Compound 2, 11-[2-(Hexamethylenimino)acetyl]-5,11-dihydro-6H-pyrido[2,3-b][1,4]benzodiazepin-6-one] | > 500 mg/kg | 11.6% | 33.7% | 55.2% | 93.3 | 49.7 | 12.8 | 100%
CC1CCCCN1CC(=O)N1c2ccccc2NC(=O)c2cccnc21 (stereo not shown) [Compound 5, 11-[2-(2-Methylpiperidin-1-yl)acetyl]-6,11-dihydro-5H-pyrido[2,3-b][1,5]benzodiazepin-5-one] | < 500 mg/kg | 18.7% | 58.4% | 66.7% | 96.9 | 71.7 | 14.6 | 100%
CC1(C)CCCN(CC(=O)N2c3ccccc3C(=O)Nc3cccnc32)C1 [Compound 10] | > 500 mg/kg | 12.4% | 24.7% | 41.5% | 30.2 | 0.2 | 0 | 0%
CN1CCN(CC(=O)N2c3ccccc3C(=S)Nc3cccnc32)CC1 [Compound 6, 11-[2-(4-Methylpiperazin-1-yl)acetyl]-5,11-dihydro-6H-pyrido[2,3-b][1,4]benzodiazepin-6-thione] | < 500 mg/kg | 7.2% | 25.8% | 51.4% | 85.5 | 43.9 | 7.5 | 10%
CN1CCN(CC(=O)N2c3ccccc3C(=O)Nc3cccnc32)CC1 [P, Pirenzepine, reference compound] |  | 7.9% | 46.0% | 71.5% |  |  |  | 10%
O=C1Nc2cccnc2N(C(=O)CCN2CCCCCC2)c2ccccc21 [Compound 4, 11-[3-(Hexamethylenimino)propionyl]-5,11-dihydro-6H-pyrido[2,3-b][1,4]benzodiazepin-6-one] | < 500 mg/kg | 21.5% | 50.2% | 64.1% | 94.4 | 54.3 | 3.0 | 50%
